The supplement of paper PMC6045584
± gives the standard deviation of the averaged measurements.

Assays:
[1] = compound: COc1ccc(-c2cc3c(C)nc(N)nc3n([C@H]3CC[C@H](OCCO)CC3)c2=O)cn1; experiment: surviving fraction relative to DMSO-only wells; higher = less growth inhibition; settings: exposure time: 5 days
Method in brief: (§1)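 Surviving fraction was calculated by normalising CellTiter-Glo luminescence to the median of DMSO-only wells. Tumour cell lines in log phase were seeded in 384-well plates at 250–500 cells per well, and 24 hours later were exposed continuously for five days to inhibitors at 0.5, 1, 5, 10, 50, 100, 500 and 1000 nM.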

[2] = compound: C[C@H](CN(C)C)Oc1nc(Nc2cc3cccc(Cl)c3cn2)cnc1C#N; experiment: as above; settings: exposure time: 5 days
Method in brief: as §1

Test System	surviving fraction ([1]; 0.5 nM)	surviving fraction ([1]; 1 nM)	surviving fraction ([1]; 5 nM)	surviving fraction ([1]; 10 nM)	surviving fraction ([1]; 50 nM)	surviving fraction ([1]; 100 nM)	surviving fraction ([1]; 500 nM)	surviving fraction ([1]; 1000 nM)	surviving fraction ([2]; 0.5 nM)	surviving fraction ([2]; 1 nM)	surviving fraction ([2]; 5 nM)	surviving fraction ([2]; 10 nM)	surviving fraction ([2]; 50 nM)	surviving fraction ([2]; 100 nM)	surviving fraction ([2]; 500 nM)	surviving fraction ([2]; 1000 nM)
SYO1 SYNOVIAL	0.961 ± 0.013	0.912 ± 0.021	0.895 ± 0.061	0.825 ± 0.041	0.557 ± 0.0083	0.386 ± 0.035	0.118 ± 0.028	0.0698 ± 0.019	0.955 ± 0.038	0.963 ± 0.015	0.969 ± 0.017	0.941 ± 0.023	0.97 ± 0.026	0.835 ± 0.015	0.34 ± 0.0094	0.197 ± 0.014
VCAP PROSTATE	1.01 ± 0.05	1.08 ± 0.04	1.06 ± 0.14	0.983 ± 0.056	0.706 ± 0.027	0.52 ± 0.023	0.161 ± 0.013	0.0997 ± 0.016	0.969 ± 0.098	1.03 ± 0.14	1.1 ± 0.11	1.08 ± 0.11	1.12 ± 0.033	1.01 ± 0.16	0.715 ± 0.12	0.35 ± 0.039
HELA CERVIX	0.998 ± 0.04	0.989 ± 0.088	1.02 ± 0.042	1.02 ± 0.035	1.11 ± 0.039	1.06 ± 0.052	0.4 ± 0.019	0.318 ± 0.017	1.01 ± 0.019	1.03 ± 0.043	0.999 ± 0.058	0.988 ± 0.079	1.11 ± 0.037	1.07 ± 0.048	1.09 ± 0.085	0.831 ± 0.029
SAOS2 BONE	1.11 ± 0.018	1.07 ± 0.016	0.98 ± 0.083	0.931 ± 0.04	0.636 ± 0.018	0.52 ± 0.014	0.174 ± 0.0087	0.0977 ± 0.0011	1.18 ± 0.055	1.19 ± 0.047	1.17 ± 0.058	1.137 ± 0.01	1.39 ± 0.1	1.32 ± 0.068	1.08 ± 0.12	0.944 ± 0.042
HCC1395 BREAST	0.864 ± 0.096	0.956 ± 0.025	0.998 ± 0.076	1.03 ± 0.029	0.883 ± 0.21	0.846 ± 0.13	0.766 ± 0.1	0.581 ± 0.15	0.957 ± 0.076	1.14 ± 0.13	1.161 ± 0.011	1.15 ± 0.14	1.27 ± 0.16	1.22 ± 0.029	0.729 ± 0.1	0.671 ± 0.15
HCC202 BREAST	1.18 ± 0.25	1.37 ± 0.17	0.947 ± 0.27	0.94 ± 0.21	0.635 ± 0.18	0.295 ± 0.047	0.0793 ± 0.018	0.048 ± 0.013	1.08 ± 0.39	1.03 ± 0.41	1.22 ± 0.065	1.01 ± 0.022	0.984 ± 0.052	0.886 ± 0.34	0.413 ± 0.071	0.376 ± 0.04
MDAMB361 BREAST	0.905 ± 0.065	0.953 ± 0.1	0.852 ± 0.056	0.775 ± 0.096	0.78 ± 0.082	0.604 ± 0.026	0.248 ± 0.02	0.205 ± 0.028	0.818 ± 0.021	0.744 ± 0.048	0.752 ± 0.058	0.775 ± 0.053	0.724 ± 0.03	0.547 ± 0.056	0.481 ± 0.02	0.488 ± 0.04
COLO320DM LARGE INTESTINE	1.07 ± 0.051	1.08 ± 0.08	0.994 ± 0.05	0.906 ± 0.029	0.5533 ± 0.0034	0.383 ± 0.037	0.215 ± 0.0076	0.18 ± 0.0044	1.04 ± 0.17	1.07 ± 0.09	1.01 ± 0.069	1.13 ± 0.068	1.06 ± 0.066	0.896 ± 0.084	0.235 ± 0.027	0.154 ± 0.027
SCC003 HEADNECK	1.03 ± 0.13	1.04 ± 0.057	1.02 ± 0.18	1.02 ± 0.036	0.879 ± 0.098	0.878 ± 0.13	0.23 ± 0.034	0.206 ± 0.049	1.04 ± 0.09	1.06 ± 0.022	1.06 ± 0.055	1.05 ± 0.054	1.05 ± 0.079	1.1 ± 0.018	0.848 ± 0.011	0.97 ± 0.12
MG63 BONE	0.984 ± 0.0072	0.97 ± 0.04	0.9233 ± 0.009	0.833 ± 0.035	0.539 ± 0.021	0.348 ± 0.011	0.137 ± 0.0046	0.0953 ± 0.0011	1.03 ± 0.042	1.05 ± 0.035	1.05 ± 0.037	1.06 ± 0.025	1.11 ± 0.031	1.12 ± 0.047	1.05 ± 0.051	0.889 ± 0.045
SG43 HEADNECK	0.954 ± 0.097	1 ± 0.041	0.747 ± 0.054	0.613 ± 0.06	0.506 ± 0.046	0.427 ± 0.032	0.266 ± 0.02	0.168 ± 0.007	0.863 ± 0.068	0.929 ± 0.058	0.961 ± 0.13	0.933 ± 0.091	0.729 ± 0.078	0.585 ± 0.08	0.692 ± 0.082	0.91 ± 0.18
MDAMB134 BREAST	0.973 ± 0.12	0.869 ± 0.11	0.864 ± 0.061	0.839 ± 0.19	0.639 ± 0.11	0.682 ± 0.064	0.361 ± 0.0042	0.293 ± 0.05	0.726 ± 0.035	0.791 ± 0.072	0.766 ± 0.071	0.663 ± 0.12	0.66 ± 0.073	0.6525 ± 0.005	0.497 ± 0.054	0.488 ± 0.02
SG27 HEADNECK	1.03 ± 0.11	1.02 ± 0.12	0.945 ± 0.042	0.935 ± 0.11	0.834 ± 0.21	0.703 ± 0.048	0.424 ± 0.0087	0.357 ± 0.039	1.14 ± 0.17	0.995 ± 0.085	1.11 ± 0.12	0.997 ± 0.04	1.1 ± 0.028	1.03 ± 0.065	1.16 ± 0.062	1.15 ± 0.097
143B BONE	0.995 ± 0.0057	0.992 ± 0.014	1.01 ± 0.039	0.966 ± 0.025	0.946 ± 0.011	0.896 ± 0.02	0.391 ± 0.016	0.267 ± 0.013	0.939 ± 0.1	1.08 ± 0.053	1.08 ± 0.035	1.05 ± 0.012	1.026 ± 0.0092	1.05 ± 0.024	0.519 ± 0.031	0.078 ± 0.021
NOS1 BONE	1.13 ± 0.032	0.989 ± 0.13	1.2 ± 0.16	0.96 ± 0.1	0.6 ± 0.048	0.448 ± 0.029	0.158 ± 0.0032	0.095 ± 0.015	1.09 ± 0.18	1.05 ± 0.082	0.999 ± 0.066	1.02 ± 0.076	0.875 ± 0.046	0.709 ± 0.12	0.252 ± 0.0046	0.253 ± 0.0087
LNCAP PROSTATE	0.877 ± 0.095	0.872 ± 0.045	0.759 ± 0.026	0.622 ± 0.041	0.226 ± 0.024	0.099 ± 0.012	0.0437 ± 0.0051	0.035 ± 0.0044	0.913 ± 0.085	0.863 ± 0.11	0.863 ± 0.015	0.92 ± 0.05	0.85 ± 0.064	0.855 ± 0.041	0.549 ± 0.047	0.464 ± 0.036
JURKAT HAEMATOPOIETIC AND LYMPHOID TISSUE	1.07 ± 0.026	1.09 ± 0.024	1.04 ± 0.021	1 ± 0.022	0.741 ± 0.017	0.57 ± 0.013	0.213 ± 0.011	0.135 ± 0.0042	1.08 ± 0.028	1.07 ± 0.013	1.05 ± 0.015	1.01 ± 0.021	0.927 ± 0.038	0.948 ± 0.02	0.619 ± 0.029	0.103 ± 0.014
CHLA90 AUTONOMIC GANGLIA	1.05 ± 0.018	1 ± 0.061	0.951 ± 0.077	0.86 ± 0.04	0.753 ± 0.015	0.586 ± 0.045	0.206 ± 0.014	0.102 ± 0.0045	0.977 ± 0.064	0.961 ± 0.058	0.913 ± 0.041	0.912 ± 0.034	0.94 ± 0.048	0.904 ± 0.075	0.46 ± 0.084	0.236 ± 0.048
MDAMB468 BREAST	0.971 ± 0.045	0.965 ± 0.12	0.989 ± 0.024	1 ± 0.078	0.857 ± 0.019	0.733 ± 0.021	0.255 ± 0.019	0.0787 ± 0.0084	0.976 ± 0.074	1.01 ± 0.043	1.08 ± 0.035	1.071 ± 0.0092	1.03 ± 0.036	1.03 ± 0.041	0.54 ± 0.039	0.223 ± 0.017
HSSYII SYNOVIAL	0.926 ± 0.034	0.941 ± 0.07	0.821 ± 0.045	0.789 ± 0.036	0.502 ± 0.006	0.329 ± 0.014	0.12 ± 0.0097	0.093 ± 0.0052	0.9423 ± 0.0023	0.918 ± 0.0061	0.956 ± 0.042	0.94 ± 0.066	0.884 ± 0.039	0.74 ± 0.015	0.139 ± 0.0076	0.077 ± 0.0027
H23 LUNG	0.989 ± 0.016	0.98 ± 0.078	0.872 ± 0.063	0.731 ± 0.042	0.422 ± 0.018	0.265 ± 0.028	0.127 ± 0.0091	0.0933 ± 0.005	1 ± 0.058	0.99 ± 0.033	1 ± 0.064	0.989 ± 0.024	1.06 ± 0.082	1.02 ± 0.038	1 ± 0.092	0.919 ± 0.079
